Test results: patent publication US11814448B2, “Carrier peptide fragment and use thereof” (TOAGOSEI CO., LTD., priority 2020, dated 2023)
FAM = FAM fluorescent dye

System: HeLa cells
Assay: Evaluation of cell membrane permeability by flow cytometry (FAM fluorescence) in HeLa cells
Type: cell-based, human
Settings: 20-hour incubation; for MFI (mean fluorescent intensity): 10 μM in culture medium, 0.5% DMSO, FL2 fluorescence detector; for introduction of the fluorescent dye (FAM) into the cytoplasm, from the histogram shift (FIG. 1), compared with Example 3 (FAM only): histogram of fluorescent intensity vs cell count
Description: The cell membrane permeability of sample 1 and sample 2 was evaluated using HeLa cells (an established cell line derived from human cervical cancer cells) as the eukaryotic cells.
HeLa cells were cultured on DMEM (Dulbecco's modified Eagle's medium (Cat. No. 043-30085, from FUJIFILM Wako Pure Chemical Corporation)) containing 10% FBS (fetal bovine serum), which is a general culture medium.
The HeLa cells attached to the culture plate were washed with PBS, a 0.25% trypsin/EDTA solution was then added, and incubation was carried out for 3 minutes at 37° C. After this incubation, the aforementioned DMEM containing 10% FBS was added and the trypsin was inactivated, and the cells were then sedimented by carrying out centrifugal separation for 5 minutes at 150×g. The supernatant produced by the centrifugal separation was removed, and the aforementioned DMEM containing 10% FBS was added to the sediment (cell pellet) to prepare a cell suspension containing approximately 1×10^5 cells/mL. The cells were seeded (approximately 2×10^5 cells/well) by the addition of 2 mL of this cell suspension to the wells of a commercial 6-well plate ((Iwaki microplate commercially available from AGC techno glass Co., Ltd). The cells were attached to the well bottom by culture for 3 hours at 37° C. under the condition of 5% CO2.
The 2 mM sample solution 1 was then diluted with the aforementioned DMEM containing 10% FBS to prepare a sample solution 1 in which the sample 1 concentration was 20 μM. After the aforementioned 3-hour culture, 1 mL of the culture supernatant was removed from the wells, followed by the addition to the wells of 1 mL of the 20 μM sample solution 1 (i.e., the concentration of sample 1 in the culture medium in the wells was brought to 10 μM and the DMSO concentration was brought to 0.5%). The cells were incubated for 20 hours at 37° C. under the condition of 5% CO2. After this 20-hour incubation, the culture supernatant was removed from the wells and the cells in the wells were washed twice with 1 mL PBS. 200 μL of 0.25% trypsin/EDTA was then added to the wells and incubation was carried out for 3 minutes at 37° C. After this incubation, the trypsin was inactivated by the addition of 400 μL of the aforementioned DMEM containing 10% FBS to the wells, and the cells were subsequently recovered by transferring the cell suspensions in the wells to a tube. The wells were then washed by the further addition of 600 μL PBS to the wells. The cells that had remained in the wells were recovered to the tube by transferring the PBS in the wells to the tube. Centrifugal separation was run on this tube for 5 minutes using conditions of 4° C. and 210×g. After the centrifugal separation, the supernatant was removed, the sediment (cell pellet) was suspended (washed) with 1 mL of PBS, and centrifugal separation was carried out using the same conditions as before. After this procedure has been repeated twice, the supernatant was removed to obtain cells (cell pellet) that had been cultured on a sample 1-containing culture medium.
The cell permeability of sample 1 was analyzed using the resulting cells (cell pellet) and a flow cytometer. An On-Chip Flow Cytometer (On-chip Biotechnologies Co., Ltd.) was used for the flow cytometer.
For this analysis, the cell pellet obtained as described above was suspended in 50 μL PBS. To this suspension was added 50 μL of 2×Sample Buffer for use with the indicated flow cytometer to prepare a cell suspension for submission to analysis.
Gating was performed using this flow cytometer based on forward scatter (FSC) and side scatter (SSC); the gating was set for the cell population that was the target of the analysis; and the fluorescent intensity was measured for the cell population within this gating. The analysis was performed so this cell population reached approximately 10,000. […]

| Substance | MFI (mean fluorescent intensity) | introduction of the fluorescent dye (FAM) into the cytoplasm, from the histogram shift (FIG. 1), compared with Example 3 (FAM only) (10 μM) | efficiency (cell membrane permeability) compared using the MFI, Example 1 versus Example 2 (10 μM, ratio of MFI values of Table 3) |
| --- | --- | --- | --- |
| 5(6)-carboxyfluorescein [Example 3] | 5.9 |  |  |
| FAM-VVRSLVKVVRSLVK-CONH2 ({FAM}-VVRSLVKVVRSLVK-NH2) [Example 1] | 690 | more efficiently introduced | approximately 65.7 times |
| FAM-KKRTLRKNDRKKR-CONH2 ({FAM}-KKRTLRKNDRKKR-NH2) [Example 2] | 10.5 | more efficiently introduced |  |
